The results in this text go back to patent publication US7713994B2 (Wyeth LLC, priority 2005, dated 2010).

Like-named read-outs stand apart in the source and are kept apart here.

Experiment [1] has as its target T1, cyclin E/CDK2 enzyme (Homo sapiens, UniProt P24941).
T1 construct: made in house; host or cells: Sf9 insect cells, recombinant baculovirus
Briefly: CDK2 ELISA kinase assay (phospho-Rb ser 795 detection). Format: biochemical. The method in brief: (§1)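 Partially purified Sf9-expressed cyclin D1/CDK4, cyclin E/CDK2 or cyclin B/CDK1 phosphorylated plate-bound GST-Rb C-terminal fragment with 200 μM ATP at 30° C for 1 h.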

The target in experiment [2] is T2, cyclin D1/cdk 4 enzyme (Homo sapiens, UniProt P11802).
T2 construct: made in house; host or cells: Sf9 insect cells, recombinant baculovirus
T2 sequence (P11802 whole entry, species assumed): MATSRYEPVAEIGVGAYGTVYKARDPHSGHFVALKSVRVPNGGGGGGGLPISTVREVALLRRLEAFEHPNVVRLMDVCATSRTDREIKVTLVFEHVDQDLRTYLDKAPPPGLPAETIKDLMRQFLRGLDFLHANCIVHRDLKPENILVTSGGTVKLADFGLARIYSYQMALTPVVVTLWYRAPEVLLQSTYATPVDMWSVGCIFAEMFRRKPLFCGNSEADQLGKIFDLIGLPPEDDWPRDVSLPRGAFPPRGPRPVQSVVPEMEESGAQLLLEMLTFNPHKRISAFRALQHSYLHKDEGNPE
T2 sequence (P24385 whole entry partner, species assumed): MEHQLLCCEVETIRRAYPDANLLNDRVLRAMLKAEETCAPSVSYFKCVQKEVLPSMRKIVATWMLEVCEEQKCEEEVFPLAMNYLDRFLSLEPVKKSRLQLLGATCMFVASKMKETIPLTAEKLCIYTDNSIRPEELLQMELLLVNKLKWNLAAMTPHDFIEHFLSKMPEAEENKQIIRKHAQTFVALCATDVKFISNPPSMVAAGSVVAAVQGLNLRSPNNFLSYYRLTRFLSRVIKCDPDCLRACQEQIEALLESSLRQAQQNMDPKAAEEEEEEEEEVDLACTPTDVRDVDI
The experiment is described as follows: CDK4 ELISA kinase assay (phospho-Rb ser 795 detection). Format: biochemical. Summed up:
as §1
(In general: An ELISA detects its analyte on a solid surface through an enzyme-linked reagent.)

Experiment [3] relates to LoVo. The experiment is described as follows: Cytotoxicity assay (SRB), LoVo. The following applies: LoVo cells, SRB, read-out: In Vitro Cellular Activity IC50 LOVO. The experiment is classed as cell-based. The method in brief: (§2)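 Cells were seeded overnight in RPMI 1640 with 5% FBS at 37 °C, 7% CO2 (12000/well BT474, 4000 HCT-116, 6000 LoVo, 6000 MCF-7), then exposed to compound dilutions for 3 days (6 days for BT474). Survival versus untreated controls was measured by TCA fixation and SRB staining at 540 nm.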

In experiment [4] the test system is MCF-7. Briefly: Cytotoxicity assay (SRB), MCF-7. Format: cell-based. The following applies: MCF-7 cells, SRB, read-out: In Vitro Cellular Activity IC50 MCF-7. The method in brief: as §2
The target of experiment [5] is T3, cyclin B/CDK1 enzyme (Homo sapiens, UniProt P06493).
T3 construct: purchased New England BioLabs; host or cells: Sf9 insect cells, recombinant baculovirus
T3 sequence (P06493 whole entry): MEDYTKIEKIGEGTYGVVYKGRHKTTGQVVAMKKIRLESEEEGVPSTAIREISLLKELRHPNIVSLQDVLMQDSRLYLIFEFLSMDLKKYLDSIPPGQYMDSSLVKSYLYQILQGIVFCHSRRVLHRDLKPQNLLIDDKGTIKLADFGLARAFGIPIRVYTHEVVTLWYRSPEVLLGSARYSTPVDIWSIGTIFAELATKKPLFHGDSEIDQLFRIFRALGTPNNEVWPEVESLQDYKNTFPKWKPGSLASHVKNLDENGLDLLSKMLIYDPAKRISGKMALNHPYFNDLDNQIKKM
T3 sequence (P14635 whole entry partner): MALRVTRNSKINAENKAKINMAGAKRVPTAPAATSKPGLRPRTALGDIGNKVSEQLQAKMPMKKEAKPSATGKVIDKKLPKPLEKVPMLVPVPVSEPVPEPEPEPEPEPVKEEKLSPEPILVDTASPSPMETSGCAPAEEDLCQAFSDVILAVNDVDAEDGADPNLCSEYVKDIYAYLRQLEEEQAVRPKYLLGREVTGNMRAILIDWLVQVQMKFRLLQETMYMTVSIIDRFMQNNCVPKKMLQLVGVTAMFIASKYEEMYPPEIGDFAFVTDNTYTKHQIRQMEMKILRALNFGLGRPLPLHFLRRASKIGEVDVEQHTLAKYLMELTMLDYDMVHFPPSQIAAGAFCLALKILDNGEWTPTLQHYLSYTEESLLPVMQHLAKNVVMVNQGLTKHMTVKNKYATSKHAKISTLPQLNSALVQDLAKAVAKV
Briefly: CDK1 ELISA kinase assay (phospho-Rb ser 795 detection). The experiment is classed as biochemical. Summed up: as §1

Experiment [6] deals with HCT-116. The experiment is described as follows: Cytotoxicity assay (SRB), HCT-116. Format: cell-based. The following applies: HCT116 cells, SRB, read-out: In Vitro Cellular Activity IC50 HCT116. The method in brief: as §2
For experiment [7], the system named is BT474. Briefly: Cytotoxicity assay (SRB), BT474. Format: cell-based. Summed up:
as §2

The mark [8] stands for this setting: In Vitro Enzyme Assay, cyclin E/CDK2, read-out: CDK2 IC50.
The mark [9] stands for this setting: In Vitro Enzyme Assay, cyclin D1/cdk 4, read-out: CDK4 IC50.
[10] abbreviates: In Vitro Enzyme Assay, cyclin B/CDK1, read-out: CDK1 IC50.
The mark [11] stands for this setting: BT474 cells, 6 days, SRB; read-out: In Vitro Cellular Activity IC50 BT474.
Setting [12] is: In Vitro Enzyme Assays, read-out: CDK2 IC50.
Setting [13] is: In Vitro Enzyme Assays, 200 μM ATP, read-out: CDK4 IC50.
The mark [14] stands for this setting: Homo sapiens, LoVo, 72 h, three days.
[15] abbreviates: Homo sapiens, MCF7, 72 h, three days.
Where [16] appears, read: In Vitro Enzyme Assays, read-out: CDK1 IC50.
[17] abbreviates: Homo sapiens, HCT-116, 72 h, three days.
Where [18] appears, read: Homo sapiens, BT-474, 144 h, BT474 cells, SRB, 6 days; read-out: In Vitro Cellular Activity IC50 BT474.
The mark [19] stands for this setting: Homo sapiens, LoVo, 72 h, 3 days.
The mark [20] stands for this setting: Homo sapiens, MCF7, 72 h, 3 days.
The mark [21] stands for this setting: Homo sapiens, HCT-116, 72 h, 3 days.
Setting [22] is: Homo sapiens, BT-474, 144 h, BT474 cells, 6 days, SRB; read-out: In Vitro Cellular Activity IC50 BT474.
[23] abbreviates: In Vitro Enzyme Assay, read-out: CDK2 IC50.
Setting [24] is: In Vitro Enzyme Assay, read-out: CDK4 IC50.
Setting [25] is: In Vitro Enzyme Assay, read-out: CDK1 IC50.

Broadly, the IC50 is the concentration that inhibits the measured activity by half. As for “6-Benzofuran-2-yl-4-[(3,4-dihydroxy-benzylamino)-methylene]-4H-isoquinoline-1,3-dione [Example 643]”, the IC50 in experiment [1] (setting [8]) was greater than 50 µM; in experiment [2] (setting [9]), 3.5 µM; in experiment [3] (3 days) it was 11.7 µM; in experiment [4] (3 days) it was 9.2 µM; in experiment [5] (setting [10]), greater than 50 µM; in experiment [6] (3 days), 14.9 µM. Further, the IC50 in experiment [7] (setting [11]) worked out at 13.4 µM.

As for “6-Bromo-4-[(4-methoxy-phenylamino)-methylene]-1,4-dihydro-2H-isoquinolin-3-one & 8-Bromo-4-[(4-methoxy-phenylamino)-methylene]-1,4-dihydro-2H-isoquinolin-3-one [Example 844]”, the concentration for half-maximal inhibition (IC50) was greater than 50 µM in experiment [1] (setting [8]); 34.7 µM in experiment [2] (setting [9]); 26.7 µM in experiment [3] (3 days); 26.1 µM in experiment [4] (3 days); greater than 50 µM in experiment [5] (setting [10]); 28 µM in experiment [6] (3 days). For the same molecule, in experiment [7] (setting [11]), the IC50 is 27.1 µM.

As for “6-Bromo-4-[(4-pyrrolidin-1-ylmethyl-phenylamino)-methylene]-1,4-dihydro-2H-isoquinolin-3-one & 8-Bromo-4-[(4-pyrrolidin-1-ylmethyl-phenylamino)-methylene]-1,4-dihydro-2H-isoquinolin-3-one [Example 846]”, the IC50 was greater than 50 µM in experiment [1] (setting [8]); 2.5 µM in experiment [2] (setting [9]); 4.8 µM in experiment [3] (3 days); 4.9 µM in experiment [4] (3 days); greater than 50 µM in experiment [5] (setting [10]); 2.6 µM in experiment [6] (3 days). Besides, the IC50 in experiment [7] (setting [11]) turned out to be 10.7 µM.

As for “6-Bromo-4-{[4-(4-methyl-piperazin-1-yl)-phenylamino]-methylene}-1,4-dihydro-2H-isoquinolin-3-one & 8-Bromo-4-{[4-(4-methyl-piperazin-1-yl)-phenylamino]-methylene}-1,4-dihydro-2H-isoquinolin-3-one [Example 845]”, the IC50 in experiment [1] (setting [8]) was greater than 50 µM; in experiment [2] (setting [9]) it was 2.3 µM; in experiment [3] (3 days), 2.5 µM; in experiment [4] (3 days), 4.5 µM; in experiment [5] (setting [10]), greater than 50 µM; in experiment [6] (3 days) it was 4.2 µM. Besides, the IC50 in experiment [7] (setting [11]) came out at 7.5 µM.

For the molecule `CC(O)C1CCCN1Cc1ccc(N/C=C2\C(=O)NC(=O)c3ccc(I)cc32)cc1` (single isomer, unassigned) [Example 374, 4-({4-[2-(1-Hydroxy-ethyl)-pyrrolidin-1-ylmethyl]-phenylamino}-methylene)-6-iodo-4H-isoquinoline-1,3-dione], the IC50 in experiment [1] (setting [12]) is 37.1 µM; in experiment [2] (setting [13]), 1.3 µM; in experiment [3] (setting [14]), 3.8 µM; in experiment [4] (setting [15]), 1 µM; in experiment [5] (setting [16]), greater than 50 µM; in experiment [6] (setting [17]), 3.2 µM. Further, the IC50 in experiment [7] (setting [18]) stood at 0.46 µM.

On to `CC1CN(C)[C@H](C)CN1c1ccc(N/C=C2\C(=O)NC(=O)c3ccc(I)cc32)cc1` (stereo in doubt) [Example 233, (4Z)-6-Iodo-4-[({4-[(2S,5R)-2,4,5-trimethylpiperazin-1-yl]phenyl}amino)methylene]-isoquinoline-1,3(2H,4H)-dione], for which the IC50 in experiment [1] (setting [12]) is greater than 50 µM; in experiment [2] (setting [13]), 3 µM; in experiment [3] (setting [14]), 4.4 µM; in experiment [4] (setting [15]) it was 1 µM; in experiment [5] (setting [16]), greater than 50 µM; in experiment [6] (setting [17]) it was 5 µM. In addition, in experiment [7] (setting [18]), the IC50 is 6.9 µM.

As to `CN1CCN(CCN(C)c2ccc(NC=C3C(=O)NC(=O)c4ccc(Br)cc43)cc2)CC1` (stereo in doubt) [Example 261, (4Z)-6-Bromo-4-{[(4-{methyl[2-(4-methylpiperazin-1-yl)ethyl]amino}phenyl)amino]methylene}isoquinoline-1,3(2H,4H)-dione], the IC50 is greater than 50 µM in experiment [1] (setting [12]); 2.6 µM in experiment [2] (setting [13]); 10 µM in experiment [3] (setting [14]); 9.2 µM in experiment [4] (setting [15]); greater than 50 µM in experiment [5] (setting [16]); 3 µM in experiment [6] (setting [17]). In experiment [7] (setting [18]), the IC50 was 10 µM.

As to `O=C1NC(=O)c2ccc(-c3ccsc3)cc2/C1=C/Nc1ccc(CN2CCC[C@@H]2CO)cc1` (stereo in doubt) [Example 421, 4-{[4-(2-Hydroxymethyl-pyrrolidin-1-ylmethyl)-phenylamino]-methylene}-6-thiophen-3-yl-4H-isoquinoline-1,3-dione], the IC50 in experiment [1] (setting [12]) is greater than 50 µM; in experiment [2] (setting [13]) it was 0.05 µM; in experiment [3] (setting [19]), 2.7 µM; in experiment [4] (setting [20]) it was 3.8 µM; in experiment [5] (setting [16]), greater than 50 µM; in experiment [6] (setting [21]), 2.6 µM. Moreover, the IC50 in experiment [7] (setting [22]) amounted to 2.9 µM.

In the case of `O=C1NC(=O)c2ccc(I)cc2/C1=C/Nc1ccc2ncccc2c1` [Example 272, (4Z)-6-Iodo-4-[(quinolin-6-ylamino)methylene]isoquinoline-1,3(2H,4H)-dione], the concentration for half-maximal inhibition (IC50) in experiment [1] (setting [12]) is 39.7 µM; in experiment [3] (setting [14]) it was 8.9 µM; in experiment [4] (setting [15]) it was 3.1 µM; in experiment [5] (setting [16]), greater than 50 µM; in experiment [6] (setting [17]) it was 4.2 µM; in experiment [7] (setting [18]), 7.2 µM.

Regarding `COc1ccc(NC=C2C(=O)NCc3cc(Br)ccc32)cc1` [Example 841, 7-Bromo-4-[(4-methoxy-phenylamino)-methylene]-1,4-dihydro-2H-isoquinolin-3-one], the IC50 in experiment [1] (setting [8]) was 25.3 µM; in experiment [3] (setting [19]) it was 34 µM; in experiment [5] (setting [10]) it was greater than 50 µM; in experiment [6] (setting [21]), 36 µM; in experiment [7] (setting [22]), 47.8 µM.

For the molecule `CN1CCN(c2ccc(NC=C3C(=O)NCc4cc(Br)ccc43)cc2)CC1` [Example 842, 7-Bromo-4-{[4-(4-methyl-piperazin-1-yl)-phenylamino]-methylene}-1,4-dihydro-2H-isoquinolin-3-one], the IC50 in experiment [1] (setting [8]) was greater than 50 µM; in experiment [2] (setting [9]) it was 2.3 µM; in experiment [3] (setting [19]), 5.7 µM; in experiment [5] (setting [10]), greater than 50 µM; in experiment [6] (setting [21]), 4.5 µM; in experiment [7] (setting [22]), 7.2 µM.

For `CONCCCc1ccc(N/C=C2\C(=O)NC(=O)c3ccc(Br)cc32)cc1` [Example 875, (4Z)-6-bromo-4-[({4-[3-(methoxyamino)propyl]phenyl}amino)methylene]isoquinoline-1,3(2H,4H)-dione], the IC50 came to 2.8 µM in experiment [1] (setting [23]); 1.9 µM in experiment [2] (setting [24]); 12.5 µM in experiment [3] (setting [19]); 10.3 µM in experiment [4] (setting [20]); 15.1 µM in experiment [5] (setting [25]); 9.5 µM in experiment [6] (setting [21]).

For `CN(C)CCCN(C)c1ccc(N/C=C2\C(=O)NC(=O)c3ccc(Br)cc32)cc1` [Example 876, (4Z)-6-Bromo-4-[({4-[[3-(dimethylamino)propyl](methyl)amino]phenyl}amino)methylene]isoquinoline-1,3(2H,4H)-dione], the IC50 is greater than 50 µM in experiment [1] (setting [23]); 14.4 µM in experiment [2] (setting [24]); 8.6 µM in experiment [3] (setting [19]); 5.3 µM in experiment [4] (setting [20]); greater than 50 µM in experiment [5] (setting [25]); 4.2 µM in experiment [6] (setting [21]).

For `CN1CCC(Oc2ccc(N/C=C3\C(=O)NC(=O)c4ccc(Br)cc43)cc2)C1` (stereo not shown) [Example 877, (4Z)-6-Bromo-4-[({4-[(1-methylpyrrolidin-3-yl)oxy]phenyl}amino)methylene]isoquinoline-1,3(2H,4H)-dione], the IC50 was greater than 50 µM in experiment [1] (setting [23]); 42.5 µM in experiment [2] (setting [24]); 6.2 µM in experiment [3] (setting [19]); 4.4 µM in experiment [4] (setting [20]); greater than 50 µM in experiment [5] (setting [25]); 3.9 µM in experiment [6] (setting [21]).
